Assay results reported in patent US10052326B1, “Antihepatotoxic agents” (KING SAUD UNIVERSITY, priority 2017, dated 2018).

How the values were obtained:
[1] = test system: CCl4-induced hepatotoxicity in hepatocytes of rats; assay: Histopathological evaluation of liver of CCl4-intoxicated rats; format: in vivo, Wistar albino rats; settings: light micrographs, hematoxylin and eosin
Description: Animals and study design: Wistar albino rats (180-200 g) were obtained from the Experimental Animal Care Center of the College of Pharmacy, King Saud University, Riyadh. Animals were maintained on standard chow diet and housed in polycarbonate cages in a room free from any source of chemical contamination, artificially illuminated (12 h dark/light cycle) and thermally controlled (25±2° C.) at the animal facility. All animals received humane care in compliance with the guidelines of the Ethics Committee of the Experimental Animal Care Society, College of Pharmacy, King Saud University, Riyadh, Saudi Arabia. After a one-week acclimatization period, animals were randomly allocated into 5 groups and treated as follows: group (1), untreated control; and groups 2, 3, 4, and 5 received 0.25 mL of CCl4 in liquid paraffin (1:1) 1.25 mL/kg body weight intraperitoneally (IP). Group 2 was administered only CCl4. Groups 3 and 4 received DHBP-2 (10 mg/kg) and (20 mg/kg/day) orally for 2 weeks, respectively. Rats in group 5 were treated with (10 mg/kg) orally with silymarin for similar days. The blood was collected by cardiac puncture after 24 hours following the administration of CCl4, allowed to clot, and the serum was then separated. After collecting the blood, the animals were sacrificed using ether anesthesia. […]

[2] = test system: mice; assay: Acute toxicity test, oral administration; format: in vivo; settings: in 0.5% CMC, observation up to 14 days
Description: Acute toxicity test: The acute toxicity test was performed on mice, for oral administration. DHPB-2 was dissolved in 0.5% CMC (carboxymethylcellulose) in water and administered at various doses, ranging from ([…]), to different groups of mice. The animals were observed continuously for 1 h and then at half hourly intervals for 4 h on the first day for clinical signs and symptoms of toxicity, and further up to 72 h followed by 14 days, for any mortality.

[3] = test system: CCl4-induced hepatotoxicity; assay: Determination of total protein (TP) in CCl4-intoxicated rats; format: in vivo, Wistar albino rats; settings: liver tissue; for Total Protein: n = 6, mean
Description: (§1) Animals and study design: Wistar albino rats (180-200 g) were obtained from the Experimental Animal Care Center of the College of Pharmacy, King Saud University, Riyadh. Animals were maintained on standard chow diet and housed in polycarbonate cages in a room free from any source of chemical contamination, artificially illuminated (12 h dark/light cycle) and thermally controlled (25±2° C.) at the animal facility. All animals received humane care in compliance with the guidelines of the Ethics Committee of the Experimental Animal Care Society, College of Pharmacy, King Saud University, Riyadh, Saudi Arabia. After a one-week acclimatization period, animals were randomly allocated into 5 groups and treated as follows: group (1), untreated control; and groups 2, 3, 4, and 5 received 0.25 mL of CCl4 in liquid paraffin (1:1) 1.25 mL/kg body weight intraperitoneally (IP). Group 2 was administered only CCl4. Groups 3 and 4 received DHBP-2 (10 mg/kg) and (20 mg/kg/day) orally for 2 weeks, respectively. Rats in group 5 were treated with (10 mg/kg) orally with silymarin for similar days. The blood was collected by cardiac puncture after 24 hours following the administration of CCl4, allowed to clot, and the serum was then separated. After collecting the blood, the animals were sacrificed using ether anesthesia. The rat livers were dissected out and used for biochemical estimations and histological assessment.
Determination of total protein (TP): Total protein was estimated by the kit method, supplied by Crescent Diagnostics, Jeddah, Saudi Arabia. The absorbance of this complex at 546 nm is proportional to the protein concentration. […]

[4] = test system: CCl4-induced hepatotoxicity; assay: Estimation of serum marker enzymes and bilirubin in CCl4-intoxicated rats; format: in vivo, Wistar albino rats; settings: 20 mg/kg orally for 2 weeks before CCl4, vs CCl4 group
Description: as §1
Estimation of marker enzymes: Serum glutamate oxaloacetate transaminase (SGOT/AST), serum glutamate pyruvate transaminase (SGPT/ALT) (Reitman S. A. et al., Am. J. Clin. Pathol. 1957, 28 (1), 56-63), alkaline phosphatase (ALP), gamma-glutamyl transferase (GGT) and bilirubin were determined using Reflotron Plus Analyzer and Roche kits (Roche Diagnostics GmbH, Mannheim, Germany) (King E. J. et al., Practical Clinical Biochemistry, H. Varley, Ed., CBS publishers, New Delhi, India, 1988).

[5] = test system: CCl4-induced hepatotoxicity; assay: Determination of malondialdehyde (MDA) in liver tissue of CCl4-intoxicated rats; format: in vivo, Wistar albino rats
Description: as §1
Determination of malondialdehyde (MDA): The method reported by (Utley H. C. et al., Archives of Biochemistry Biophysics, 1967, 260, 521-531) was followed. Briefly, the liver tissues were removed, and tissue was homogenized in 0.15 M KCl (at 4° C.; Potter-Elvehjem type C homogenizer) to give a 10% w/v homogenate. The absorbance of the solution was then read at 532 nm. The content of malondialdehyde (nmol/g wet tissue) was then calculated, by reference to a standard curve of malondialdehyde solution.

[6] = test system: CCl4-induced hepatotoxicity; assay: Estimation of hepatic non-protein sulfhydryls (NP-SH) in CCl4-intoxicated rats; format: in vivo, Wistar albino rats; settings: liver tissue; for NP-SH: n = 6, mean
Description: as §1
Estimation of non-protein sulfhydryls (NP-SH): Hepatic non-protein sulfhydryls were measured according to the method of Sedlak and Lindsay et. al., Analytical Biochemistry C, 1968, 25, 192-205. The livers were homogenized in ice-cold 0.02 mmol/L ethylenediaminetetraacetic acid (EDTA). The absorbance was measured within 5 min. of addition of 5,5′-dithio-bis(2-nitrobenzoic acid) (DTNB) at 412 nm against a reagent blank.

[7] = test system: CCl4-induced hepatotoxicity; assay: Serum lipid profile in CCl4-intoxicated rats; format: in vivo, Wistar albino rats; settings: 20 mg/kg, two week pretreatment before CCl4
Description: as §1

**Q.** For CCOc1ccc(C2NC(=O)NC=C2C(=O)c2ccc3c(c2)OCCO3)cc1 (centres unmarked) [DHPB-6, 4-(4-Ethoxyphenyl)-5-(2,3-dihydro-1,4-benzodioxin-6-ylcarbonyl)-3,4-dihydro-pyrimidin-2(1H)-one], which melting point is on record?
**A.** 210 to 212 °C

**Q.** With O=C1NC=C(C(=O)c2ccc3c(c2)OCCO3)C(c2ccc([N+](=O)[O-])cc2)N1 (centres unmarked) [DHPB-2, 4-(4-Nitrophenyl)-5-(2,3-dihydro-1,4-benzodioxin-6-ylcarbonyl)-3,4-dihydro-pyrimidin2(1H)-one] as the compound, how does the “histopathological assessment of the liver” value ([1]; 10 mg/kg/day oral pretreatment) read?
**A.** marked improvement in liver parenchyma

**Q.** And the “histopathological assessment of the liver” value ([1]; 20 mg/kg/day oral pretreatment)?
**A.** marked improvement in liver parenchyma

**Q.** What about the “dose up to which no toxicity symptoms and no morbidity were observed” value [2] of the same compound?
**A.** up to 500 mg/kg

**Q.** What about the “TP level (in words)” value ([3]; 20 mg/kg, vs CCl4 group) of the same compound?
**A.** significantly enhanced

**Q.** And the “Total Protein” value ([3]; dose 10 mg/kg + CCl4)?
**A.** 38.11 g/L

**Q.** What about the “Total Protein” value ([3]; dose 20 mg/kg + CCl4) of the same compound?
**A.** 74.03 g/L

**Q.** And the ALP level [4]?
**A.** significant decrease

**Q.** And the ALT level [4]?
**A.** significant decrease

**Q.** And the AST level [4]?
**A.** significant decrease

**Q.** What about the GGT level [4] of the same compound?
**A.** significant decrease

**Q.** And the bilirubin level [4]?
**A.** significant decrease

**Q.** What about the “level of MDA (in words)” value ([5]; 20 mg/kg, vs CCl4 group) of the same compound?
**A.** significant reduction

**Q.** And the MDA ([5]; dose 10 mg/kg + CCl4, n = 6, mean)?
**A.** 6.84 nmol/g

**Q.** And the MDA ([5]; dose 20 mg/kg + CCl4, n = 6, mean)?
**A.** 1.59 nmol/g

**Q.** And the “NP-SH level (in words)” value ([6]; 20 mg/kg, vs CCl4 group)?
**A.** significantly enhanced

**Q.** And the NP-SH ([6]; dose 10 mg/kg + CCl4)?
**A.** 4.30 nmol/g

**Q.** What about the NP-SH ([6]; dose 20 mg/kg + CCl4) of the same compound?
**A.** 6.16 nmol/g

**Q.** What about the HDL cholesterol level [7] of the same compound?
**A.** significantly improved

**Q.** What about the LDL cholesterol level [7] of the same compound?
**A.** significantly reduced

**Q.** What about the VLDL cholesterol level [7] of the same compound?
**A.** significantly reduced

**Q.** And the cholesterol level [7]?
**A.** significantly reduced

**Q.** And the triglycerides level [7]?
**A.** significantly reduced
